Key:
Type in all cases: in vivo, human
[1] = test system: children and young adults with severe, childhood onset treatment-resistant epilepsy (TRE); test: Expanded access compassionate use program of highly purified CBD extract added to baseline AED regimen; seizure diaries
Description: (§1) Twenty-seven children and young adults with severe, childhood onset treatment-resistant epilepsy (TRE) were tested with a highly purified extract of cannabidiol (CBD) obtained from a cannabis plant. The participants in the study were part of an expanded access compassionate use program for CBD.
(§2) All patients entered a baseline period of 4 weeks when parents/caregivers kept prospective seizure diaries, noting all countable motor seizure types.
(§3) The patients then received a highly purified CBD extract (greater than 98% CBD w/w) in sesame oil, of known and constant composition, at a dose of 5 mg/kg/day in addition to their baseline anti-epileptic drug (AED) regimen.
(§4) Laboratory testing for hematologic, liver, kidney function, and concomitant AED levels was performed at baseline, and after 4, 8 and 12 weeks of CBD therapy.

[2] = test system: children and young adults with treatment-resistant Dravet syndrome; test: Expanded access compassionate use program, Dravet syndrome sub-group
Description: as §1, §2, §3, §4
Nine children and young adults with treatment-resistant Dravet syndrome were part of an expanded access compassionate use program for highly purified CBD extract as described in Example 1.

[3] = test system: children and young adults with treatment-resistant myoclonic absence seizures; test: Expanded access compassionate use program, myoclonic absence seizures sub-group
Description: as §1, §2, §3, §4
Four children and young adults with treatment-resistant myoclonic absence seizures were part of an expanded access compassionate use program for highly purified CBD extract as described in Example 1.

patients with FIRES = test: Expanded access program, febrile infection related epilepsy syndrome (FIRES) patients; set-up: Change from Baseline: unit not given here; details: for % Change from Baseline / Change from Baseline / Frequency (per month) / Responder (>=50% Reduction) / Responder (>=70% Reduction) / Responder (>=90% Reduction) / Seizure Free: total seizures
Description: Three patients with FIRES, with an age range of from 4 to 15 years, were treated with CBD under an expanded access program as described previously in Example 1.
Safety laboratory studies, physical/neurological exams, 24 hour video/EEG and seizure types and frequencies were assessed at baseline and one month after starting CBD.
A highly purified extract of CBD as an oral solution in sesame oil was used at a concentration of 25 mg/mL.
Treatment was initiated at a dose of 10 mg/kg/day given in two divided doses, increasing by 5 mg/kg/day every 3 days.
Following seizure improvement an average of 2 AEDs were weaned.

[4] = 27 subjects, 3-month treatment period
[5] = All patients (excluding Dravet, MAS and FIRES) (n = 13), after 12 weeks of treatment
[6] = All patients excluding Dravet patients (n = 18), after 3 months
[7] = All patients excluding MAS patients (n = 23), after 3 months
[8] = co-treatment of CBD with clobazam
[9] = 9 Dravet subjects, 3-month treatment period
[10] = Dravet patients (n = 9), after 3 months of therapy
[11] = 4 MAS subjects, 3-month treatment period
[12] = MAS patients (n = 4), after 3 months of therapy
[13] = FIRES patients (n = 3), after 12 weeks of treatment

## C=C(C)[C@@H]1CCC(C)=C[C@H]1c1c(O)cc(CCCCC)cc1O [CBD, Cannabidiol]
[1]; [4]
  Common adverse events: somnolence, fatigue, decreased appetite, increased appetite and diarrhoea
  adverse events: mild and well tolerated
  subjects who withdrew during the treatment period: None
[1]; [5]
  Responder rate (>50% reduction) [%]: 38%
  Responder rate (>50% reduction), number of patients: 5
  Responder rate (>70% reduction) [%]: 31%
  Responder rate (>70% reduction), number of patients: 4
  Responder rate (>90% reduction) [%]: 8%
  Responder rate (>90% reduction), number of patients: 1
  Seizure free, number of patients: 0
[1]; All patients (n = 27), Month 3
  Responder rate (>50% reduction) [%]: 48%
  Responder rate (>50% reduction), number of patients: 13
  Responder rate (>70% reduction) [%]: 41%
  Responder rate (>70% reduction), number of patients: 11
  Responder rate (>90% reduction) [%]: 22%
  Responder rate (>90% reduction), number of patients: 6
  Seizure free [%]: 7%
[1]; [6]
  Responder rate (>50% reduction) [%]: 44%
  Responder rate (>50% reduction), number of patients: 8
  Responder rate (>70% reduction) [%]: 39%
  Responder rate (>70% reduction), number of patients: 7
  Responder rate (>90% reduction) [%]: 17%
  Responder rate (>90% reduction), number of patients: 3
  Seizure free, number of patients: 0
[1]; [7]
  Responder rate (>50% reduction) [%]: 48%
  Responder rate (>50% reduction), number of patients: 11
  Responder rate (>70% reduction) [%]: 39%
  Responder rate (>70% reduction), number of patients: 9
  Responder rate (>90% reduction) [%]: 22%
  Responder rate (>90% reduction), number of patients: 5
  Seizure free [%]: 9%
  Seizure free, number of patients: 2
[1]; [8]
  odds ratio (OR) for positive treatment response (greater than 50% responder rate), convulsive seizures: 1.9
  odds ratio (OR) for positive treatment response (greater than 50% responder rate), total seizure reduction: 3.3
[1]; doses up to 25 mg/kg/day
  tolerability: generally well-tolerated
[2]; [9]
  Common adverse events: somnolence, fatigue, decreased appetite, increased appetite and diarrhoea
  adverse events: mild and well tolerated
  subjects who withdrew during the treatment period: None
[2]; [10]
  Responder rate (>50% reduction) [%]: 56%
  Responder rate (>50% reduction), number of patients: 5
  Responder rate (>70% reduction) [%]: 44%
  Responder rate (>70% reduction), number of patients: 4
  Responder rate (>90% reduction), number of patients: 3
  Seizure free [%]: 22%
  Seizure free, number of patients: 2
[3]; [11]
  Common adverse events: somnolence, fatigue, decreased appetite, increased appetite and diarrhoea
  adverse events: mild and well tolerated
  subjects who withdrew during the treatment period: None
[3]; [12]
  Responder rate (>50% reduction), number of patients: 2
  Responder rate (>70% reduction) [%]: 50%
  Responder rate (>70% reduction), number of patients: 2
  Responder rate (>90% reduction) [%]: 25%
  Seizure free, number of patients: 0
Patients with FIRES; FIRES patients
  functional recovery after a reduction in seizures: able to walk and verbalise once more
Patients with FIRES; [13]
  Responder rate (>50% reduction) [%]: 67%
  Responder rate (>50% reduction), number of patients: 2
  Responder rate (>70% reduction) [%]: 67%
  Responder rate (>70% reduction), number of patients: 2
  Responder rate (>90% reduction) [%]: 67%
  Responder rate (>90% reduction), number of patients: 2
  Seizure free [%]: 33%
  Seizure free, number of patients: 1
Patients with FIRES; Patient 1, 24 week period
  seizure freedom over the treatment period: seizure free after starting treatment for almost all of the treatment period
Patients with FIRES; Patient 2, after 4 weeks
  reduction in seizures: 50%
Patients with FIRES; Patient 3, week 24
  reduction in the number of seizures: greater than 90%
Patients with FIRES; in two of the three children with refractory seizures or status epilepticus due to FIRES
  improvement in clinical and electrographic seizure burden: greater than 90%
Patients with FIRES; three FIRES patients
  Follow up laboratory tests (safety studies, concomitant AED levels): no changes in safety studies or concomitant AED levels
  tolerability: very well tolerated
  treatment related adverse effects: No treatment related adverse effects
Patients with FIRES; Patient 1, Wk 4
  % Change from Baseline: −100.0%
  Change from Baseline: −4.0
  Frequency (per month): 0.0 per month
  Responder (>=50% Reduction): Yes
  Responder (>=70% Reduction): Yes
  Responder (>=90% Reduction): Yes
  Seizure Free: Yes
Patients with FIRES; Patient 1, Wk 8
  % Change from Baseline: −75.0%
  Change from Baseline: −3.0
  Frequency (per month): 1.0 per month
  Responder (>=50% Reduction): Yes
  Responder (>=70% Reduction): Yes
  Responder (>=90% Reduction): No
  Seizure Free: No
Patients with FIRES; Patient 1, Wk 12
  % Change from Baseline: −100.0%
  Change from Baseline: −4.0
